This is an account of results in patent US5084479A, “Novel methods for treating neurodegenerative diseases” (priority 1990, dated 1992).

For data set [1], the system named is glycine modulatory site of the NMDA receptor-channel complex. It is filed as cell-based, rat. The following applies: for Effect on glycine-potentiated NMDA-induced current: gabapentin 10 μM with glycine 1 μM and strychnine 10 μM, reversed on washing; for Effect on glycine-potentiated NMDA-induced current / Effect on NMDA-induced current in the absence of glycine: acetic acid; for Effect on NMDA-induced current in the absence of glycine: gabapentin 10 μM, bath application, reversed on washing for four minutes. The method, then:
Whole-cell patch clamp techniques were employed to investigate the effects of the antiepileptic drug, gabapentin, upon the responses of striatal neurons in dissociated culture to NMDA.
Striata were aseptically dissected from 16-day-old rat fetuses and mechanically triturated in enzyme-free Puck's saline (Gibco, UK). The resulting suspension was diluted to 1×10^6 cells/mL using freshly prepared medium. The medium was composed of Minimal essential medium with Earle's salts and included Fetal calf serum (5% v/v), Horse serum (5% v/v), L-Glutamine (2 mM), Insulin ([…]), and HEPES (5 mM) buffer (all Gibco, UK).
The cells were plated onto Poly-L-ornithine ([…]; Sigma) coated glass coverslips (diameter 13 mm) and incubated at 37° C. in a humidified atmosphere of 95% Air/5% CO2.
After seven days, the media was replaced with freshly prepared media containing (+)-5-fluoro-deoxyuridine (10 μM; Sigma) to inhibit the proliferation of nonneuronal elements. Cultures were subsequently fed twice weekly.
Patch electrodes with ohmic resistances of 6-10 M .OMEGA. were filled with an intracellular solution of the following composition (all mM); CsF 140.0, CaCl2 0.5, NaCl 1.0, K-EGTA 5.0 and HEPES 10.0. All recordings were made at 20°-22° C. using a List EPC7 amplifier and the resulting signal was filtered at 10 KHz. Fast and slow transient capacity compensation was employed, and cells were voltage clamped at a holding potential of -70 mV, unless otherwise stated.
Drugs were dissolved to a known concentration in the extracellular solution and were applied via the perfusion system. NMDA was applied via the perfusion system, or by rapid pressure ejection. All drugs were obtained from Sigma, except gabapentin which was synthesized at Goedecke (Warner-Lambert) Germany.

The test system of data set [2] is seizures elicited by 4-aminobutanoic acid (GABA) synthesis or GABA receptor antagonists. Particulars: mice; cited from earlier work.
A further data set has as its system GABA. The following applies: cited from earlier work.
The conditions of data set [3]: in vivo; cited from earlier work.
Data set [4] has as its system seizures elicited by NMDA. The following applies: in vivo; cited from earlier work.
For a further data set, the system named is neuronal GABA uptake. Particulars: cited from earlier work.
For the next data set, the system named is GABAB. Particulars: cited from earlier work.
Data set [5] has as its system NMDA receptor-channel complex. Kind of data set: Intracellular recording of NMDA-induced depolarization, CA1 hippocampal neurones in brain slices. It is filed as cell-based, rat. Particulars: gabapentin 300 μM. As for the experimental part:
(§1) Intracellular recordings were made from neurones of either paraventricular thalamus (n =8, 7 slices) or CA1 region of the hippocampus (n =5, 5 slices) contained in […] rat brain slices. NMDA applied via the perfusion system, produced a concentration-dependent depolarization of all neurones tested. In every case but one, control response to NMDA was reduced by a concomitant application of gabapentin (300 μM). The concentration-response curves for NMDA in the presence and absence of gabapentin show a noncompetitive interaction of gabapentin with NMDA receptor-channel complex.
(§2) Coronal slices of rat brain at the level of the ventromedial hypothalamus were chosen since these contain both hippocampus and paraventricular thalamus (PVT). Slices were perfused in normal (1.3 mM magnesium) artificial cerebrospinal fluid (ACSF) at 3 mL/min. Conventional intracellular recording techniques were employed, using 1M potassium acetate-filled electrodes pulled on a Brown-Flaming microelectrode puller type P-87.
Drugs were made up as stock solutions in distilled water (NMDA 50 mM; gabapentin 100 mM) and stored frozen prior to use. The required concentrations of each drug were obtained by direct dilution with ACSF at the time of the experiment. Control dose-response curves for NMDA were obtained either in the presence or absence of tetrodotoxin (TTX). […]

Data set [6] relates to NMDA receptor-channel complex. Kind of data set: Intracellular recording of NMDA-induced depolarization, paraventricular thalamus (PVT) neurones in brain slices. The format is cell-based, rat. The following applies: gabapentin 300 μM. The method, then: as §1, §2
Drugs were made up as stock solutions in distilled water (NMDA 50 mM; gabapentin 100 mM) and stored frozen prior to use. The required concentrations of each drug were obtained by direct dilution with ACSF at the time of the experiment. Control dose-response curves for NMDA were obtained either in the presence or absence of tetrodotoxin (TTX). NMDA was applied to a 30-second period, with at least five minutes between successive doses. Gabapentin was added to the same NMDA-containing solutions and the dose-response curves repeated. Experiments were also performed using repeated single doses of NMDA to ensure that the effects of gabapentin were not due to rundown of the NMDA response.

For data set [7] the following is noted: in vivo; cited from earlier work. This is another data set of the same source.

Molecules are shown by their SMILES. Where “and” joins values, the source holds several entries; their conditions need not be identical. Equal entries are not always repeated. Where two headings read alike, the source gives them in different places.

On to `NCC(=O)O` [Glycine, reference compound], for which the “Effect of glycine on NMDA-induced peak current” value in [1] was “potentiation of the NMDA induced peak current”. For the same compound, the “Effect of glycine on sustained inward current produced by bath application of NMDA” value in data set [1] (NMDA 100 μM bath application, glycine 1 μM) is “markedly potentiated”. The “Peak Inward Current (pA), relative to NMDA = 100%” value in data set [1] (striatal neurons) was 589 ± 156% and 713 ± 260%.
Regarding `NCC1(CC(=O)O)CCCCC1` [gabapentin, 1-aminomethyl-cyclohexane acetic acid], the Protection from seizures result in [2] is on record as “protect mice from seizures”. Besides, the “Displacement of GABA binding” value in the data set with GABA is listed as “does not displace”. For the same compound, in [3], the Tolerability entry was “well tolerated”. The Toxicity result in data set [3] is listed as “relatively nontoxic”. In addition, in data set [4], the “Latency of onset of seizures elicited by NMDA” value is “prolong the latency of onset of seizures”. The “Interference with neuronal GABA uptake” value in the data set on neuronal GABA uptake is on record as “does not interfere with neuronal GABA uptake”. The “Displacement of GABAB binding” value in the data set with GABAB is listed as “does not displace”. Further, the “Effect on NMDA-induced depolarization” value in [5] (CA1 hippocampal neurones, more evident as NMDA concentration increased) is recorded as “reduction in the NMDA-induced depolarization”. The “Nature of the block of the NMDA response” value is reported as “noncompetitive” in data set [5] (NMDA dose-response curves, hippocampus (FIG. 8B)) and “noncompetitive” in data set [6] (NMDA dose-response curves, PVT neurones (FIG. 6B)). Further, the “Reduction of NMDA depolarization” value in [6] (100 μM NMDA for 30 s, TTX present, thalamic neurones (FIG. 5)) was approximately 60%. The “Effect on response (depolarization) to NMDA” value in [6] (high (30 to 50 μM) concentrations of NMDA, PVT neurones) is “reduced”. Also, the “Metabolism in the body” value in data set [7] is “not metabolized in the body”. Besides, the “Peak Inward Current (pA), relative to NMDA = 100%” value in [1] (Table 2, NMDA + 10 μM GABA-P, no exogenous glycine, n = 4) was 305 ± 88%; in data set [1] (Table 2, NMDA after 'wash' of 10 μM GABA-P, n = 4) it was 106 ± 9%; in data set [1] (Table 3, 'wash' of GABA-P, NMDA + 1 μM Glycine + 10 μM Strychnine, n = 3), 257 ± 418%; in data set [1] (Table 3, NMDA + 1 μM Glycine + 10 μM Strychnine + 10 μM GABA-P, n = 3), 201 ± 24%. Further, the “Effect on glycine-potentiated NMDA-induced current” value in data set [1] was “antagonism of the glycine-induced potentiation of the NMDA-induced current”; in [1] (listed as Gabapentin), “antagonism of the glycine-potentiated NMDA current”. For the same compound, the “Effect on NMDA-induced current in the absence of glycine” value is on record as “potentiation of the NMDA-induced current” in data set [1] and “reversible potentiation of the NMDA-induced current” in data set [1] (listed as Gabapentin).
